Data: PubChem BioAssay (NCI)
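Exposure lasted 48 hours, with cells grown in 96-well plates and compounds tested at five concentrations. GI50 = concentration required for 50% inhibition of growth. TGI denotes the concentration required for complete inhibition of growth.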

How the values were obtained:
Experiment in all cases: NCI anticancer screen, dose series, 48 h
SW-620 colon = test system: SW-620 colon
KM12 colon = test system: KM12 colon
RXF 393 renal = test system: RXF 393 renal
SF-295 CNS = test system: SF-295 CNS
EKVX NSCLC = test system: EKVX NSCLC
CCRF-CEM leukemia = test system: CCRF-CEM leukemia
SNB-19 CNS = test system: SNB-19 CNS
IGROV1 ovarian = test system: IGROV1 ovarian
HT29 colon = test system: HT29 colon
SF-268 CNS = test system: SF-268 CNS
DU-145 prostate = test system: DU-145 prostate
M14 melanoma = test system: M14 melanoma
786-0 renal = test system: 786-0 renal
UO-31 renal = test system: UO-31 renal
OVCAR-8 ovarian = test system: OVCAR-8 ovarian
NCI-H522 lung = test system: NCI-H522 lung
SN12C renal = test system: SN12C renal
HOP-92 NSCLC = test system: HOP-92 NSCLC
OVCAR-5 ovarian = test system: OVCAR-5 ovarian
SK-MEL-28 melanoma = test system: SK-MEL-28 melanoma
HCT-15 colon = test system: HCT-15 colon
T-47D breast = test system: T-47D breast
MDA-MB-435 = test system: MDA-MB-435
HCT-116 colon = test system: HCT-116 colon
UACC-62 melanoma = test system: UACC-62 melanoma
NCI-H460 lung = test system: NCI-H460 lung
LOX IMVI melanoma = test system: LOX IMVI melanoma
PC-3 prostate = test system: PC-3 prostate
U251 CNS = test system: U251 CNS
SNB-75 CNS = test system: SNB-75 CNS
ACHN renal = test system: ACHN renal
A549 NSCLC = test system: A549 NSCLC
HCC-2998 colon = test system: HCC-2998 colon
A498 renal = test system: A498 renal
SK-OV-3 ovarian = test system: SK-OV-3 ovarian
RPMI-8226 leukemia = test system: RPMI-8226 leukemia
BT-549 breast = test system: BT-549 breast
SR leukemia = test system: SR leukemia
OVCAR-3 ovarian = test system: OVCAR-3 ovarian
K-562 leukemia = test system: K-562 leukemia
NCI-H226 lung = test system: NCI-H226 lung
HL-60(TB) leukemia = test system: HL-60(TB) leukemia
HS 578T breast = test system: HS 578T breast
SK-MEL-5 melanoma = test system: SK-MEL-5 melanoma
TK-10 renal = test system: TK-10 renal
MCF7 breast = test system: MCF7 breast
COLO 205 colon = test system: COLO 205 colon
MDA-MB-231 breast = test system: MDA-MB-231 breast
HOP-62 NSCLC = test system: HOP-62 NSCLC
SF-539 CNS = test system: SF-539 CNS
CAKI-1 renal = test system: CAKI-1 renal
OVCAR-4 ovarian = test system: OVCAR-4 ovarian
NCI/ADR-RES ovarian = test system: NCI/ADR-RES ovarian
UACC-257 melanoma = test system: UACC-257 melanoma
SK-MEL-2 melanoma = test system: SK-MEL-2 melanoma
MOLT-4 leukemia = test system: MOLT-4 leukemia

Cc1ccc(S(=O)(=O)NC2=NCCN2C(=S)SN2CCn3c2nsc3=S)cc1
GI50 (SW-620 colon): 14.1 µM | TGI (SW-620 colon): 40.7 µM | GI50 (KM12 colon): 16.6 µM | TGI (KM12 colon): 32.7 µM | GI50 (RXF 393 renal): 8.17 µM | TGI (RXF 393 renal): 20.9 µM | GI50 (SF-295 CNS): 18.2 µM | TGI (SF-295 CNS): 50.8 µM | GI50 (EKVX NSCLC): 27.7 µM | TGI (EKVX NSCLC): > 100 µM | GI50 (CCRF-CEM leukemia): 14 µM | TGI (CCRF-CEM leukemia): 51.9 µM | GI50 (SNB-19 CNS): 28.6 µM | TGI (SNB-19 CNS): 83.1 µM | GI50 (IGROV1 ovarian): 14.1 µM | TGI (IGROV1 ovarian): 34.6 µM | GI50 (HT29 colon): 29.9 µM | TGI (HT29 colon): 97.5 µM | GI50 (SF-268 CNS): 32.4 µM | TGI (SF-268 CNS): 87.2 µM | GI50 (DU-145 prostate): 26.4 µM | TGI (DU-145 prostate): > 100 µM | GI50 (M14 melanoma): 15.2 µM | TGI (M14 melanoma): 32.1 µM | GI50 (786-0 renal): 19.1 µM | TGI (786-0 renal): 44.4 µM | GI50 (UO-31 renal): 2.93 µM | TGI (UO-31 renal): 11 µM | GI50 (OVCAR-8 ovarian): 24.3 µM | TGI (OVCAR-8 ovarian): 72.1 µM | GI50 (NCI-H522 lung): 5.01 µM | TGI (NCI-H522 lung): 18.8 µM | GI50 (SN12C renal): 19.4 µM | TGI (SN12C renal): 46.9 µM | GI50 (HOP-92 NSCLC): 24.7 µM | TGI (HOP-92 NSCLC): > 100 µM | GI50 (OVCAR-5 ovarian): 20.1 µM | TGI (OVCAR-5 ovarian): 40.8 µM | GI50 (SK-MEL-28 melanoma): 17.2 µM | TGI (SK-MEL-28 melanoma): 32.7 µM | GI50 (HCT-15 colon): 15.1 µM | TGI (HCT-15 colon): 31.7 µM | GI50 (T-47D breast): 11.3 µM | TGI (T-47D breast): 26.2 µM | GI50 (MDA-MB-435): 17.3 µM | TGI (MDA-MB-435): 41.8 µM | GI50 (HCT-116 colon): 13.7 µM | TGI (HCT-116 colon): 28.8 µM | GI50 (UACC-62 melanoma): 15.1 µM | TGI (UACC-62 melanoma): 32.3 µM | GI50 (NCI-H460 lung): 31 µM | TGI (NCI-H460 lung): > 100 µM | GI50 (LOX IMVI melanoma): 1.92 µM | TGI (LOX IMVI melanoma): 4.25 µM | GI50 (PC-3 prostate): 17.2 µM | TGI (PC-3 prostate): 51.7 µM | GI50 (U251 CNS): 19.1 µM | TGI (U251 CNS): 39 µM | GI50 (SNB-75 CNS): 24.7 µM | TGI (SNB-75 CNS): 52.9 µM | GI50 (ACHN renal): 6.56 µM | TGI (ACHN renal): 19.6 µM | GI50 (A549 NSCLC): 30.4 µM | TGI (A549 NSCLC): 90.2 µM | GI50 (HCC-2998 colon): 21 µM | TGI (HCC-2998 colon): 50.6 µM | GI50 (A498 renal): 28.6 µM | TGI (A498 renal): 68.7 µM | GI50 (SK-OV-3 ovarian): 0.116 µM | TGI (SK-OV-3 ovarian): 13.6 µM | GI50 (RPMI-8226 leukemia): 16.7 µM | TGI (RPMI-8226 leukemia): 73.2 µM | GI50 (BT-549 breast): 23.4 µM | TGI (BT-549 breast): 55.8 µM | GI50 (SR leukemia): 7.29 µM | TGI (SR leukemia): 36.6 µM | GI50 (OVCAR-3 ovarian): 10.5 µM | TGI (OVCAR-3 ovarian): 27.9 µM | GI50 (K-562 leukemia): 14.8 µM | TGI (K-562 leukemia): 42.4 µM | GI50 (NCI-H226 lung): 19.9 µM | TGI (NCI-H226 lung): 50.6 µM | GI50 (HL-60(TB) leukemia): 11.2 µM | TGI (HL-60(TB) leukemia): 55.6 µM | GI50 (HS 578T breast): 31.4 µM | TGI (HS 578T breast): > 100 µM | GI50 (SK-MEL-5 melanoma): 21.8 µM | TGI (SK-MEL-5 melanoma): 50.3 µM | GI50 (TK-10 renal): 11.1 µM | TGI (TK-10 renal): 24.7 µM | GI50 (MCF7 breast): 32.5 µM | TGI (MCF7 breast): > 100 µM | GI50 (COLO 205 colon): 6.62 µM | TGI (COLO 205 colon): 21.2 µM | GI50 (MDA-MB-231 breast): 15.1 µM | TGI (MDA-MB-231 breast): 38 µM | GI50 (HOP-62 NSCLC): 22.4 µM | TGI (HOP-62 NSCLC): 57.5 µM | GI50 (SF-539 CNS): 22 µM | TGI (SF-539 CNS): 52.7 µM | GI50 (CAKI-1 renal): 3.47 µM | TGI (CAKI-1 renal): 14.6 µM | GI50 (OVCAR-4 ovarian): 14 µM | TGI (OVCAR-4 ovarian): 28.2 µM | GI50 (NCI/ADR-RES ovarian): 31.8 µM | TGI (NCI/ADR-RES ovarian): > 100 µM | GI50 (UACC-257 melanoma): 19 µM | TGI (UACC-257 melanoma): 43.4 µM | GI50 (SK-MEL-2 melanoma): 28.6 µM | TGI (SK-MEL-2 melanoma): 89.2 µM | GI50 (MOLT-4 leukemia): 20.6 µM | TGI (MOLT-4 leukemia): > 100 µM
